Data taken from ChEMBL document CHEMBL5346862, “Discovery of the thieno[2,3-d]pyrimidine-2,4-dione derivative 21a: A potent and orally bioavailable gonadotropin-releasing hormone receptor antagonist” (Eur J Med Chem, 2022).

Assays:
[1] = Apparent permeability across apical to basolateral side in human Caco-2 cells incubated for 180 mins by LC/MS/MS analysis; type: ADME, cell-based; conditions: for Papp A→B at 3 h: Caco-2
[2] = Apparent permeability across basolateral to apical side in human Caco-2 cells incubated for 180 mins by LC/MS/MS analysis; type: ADME, cell-based; conditions: for Papp B→A at 3 h: Caco-2
[3] = Intrinsic clearance in human liver microsomes incubated for 15 mins in presence of NADPH by LC-MS analysis; type: ADME, Microsome; conditions: read-out: CLH
[4] = Intrinsic clearance in rat liver microsomes incubated for 15 mins in presence of NADPH by LC-MS analysis; type: ADME, Microsome; conditions: read-out: CLH
[5] = Tmax in Sprague-Dawley rat at 12 mg/kg, po measured for 24 hrs by LC/MS analysis; type: ADME, organism-based; conditions: in vivo
[6] = Cmax in Sprague-Dawley rat at 12 mg/kg, po measured for 24 hrs by LC/MS analysis; type: ADME, organism-based; set-up: dose 12 mg/kg, time 24 hrs, route po; conditions: in vivo
[7] = AUC(last) in Sprague-Dawley rat at 12 mg/kg, po measured for 24 hrs by LC/MS analysis; type: ADME, organism-based; set-up: time 24 hrs, dose 12 mg/kg, route po; conditions: in vivo
[8] = Half-life in Sprague-Dawley rat at 12 mg/kg, po measured for 24 hrs by LC/MS analysis; type: ADME, organism-based; conditions: in vivo
[9] = Oral bioavailability in Sprague-Dawley rat at 12 mg/kg measured for 24 hrs by LC/MS analysis; type: ADME, organism-based; conditions: in vivo
[10] = Cmax in Sprague-Dawley rat at 1 mg/kg, iv measured for 24 hrs by LC/MS analysis; type: ADME, organism-based; set-up: time 24 hrs, dose 1 mg/kg, route iv; conditions: in vivo
[11] = AUC(last) in Sprague-Dawley rat at 1 mg/kg, iv measured for 24 hrs by LC/MS analysis; type: ADME, organism-based; set-up: dose 1 mg/kg, time 24 hrs, route iv; conditions: in vivo
[12] = Clearance in Sprague-Dawley rat at 1 mg/kg, iv measured for 24 hrs by LC/MS analysis; type: ADME, organism-based; conditions: in vivo
[13] = Half-life in Sprague-Dawley rat at 1 mg/kg, iv measured for 24 hrs by LC/MS analysis; type: ADME, organism-based; conditions: in vivo
[14] = Drug uptake in Sprague-Dawley rat hypothalamus and pituitary at 12 mg/kg, po measured after 1 hr by LC-MS/MS analysis; type: ADME, organism-based, Hypothalamus/Pituitary gland; conditions: read-out: Drug uptake
[15] = Drug uptake in Sprague-Dawley rat hypothalamus and pituitary at 12 mg/kg, po measured after 4 hrs by LC-MS/MS analysis; type: ADME, organism-based, Hypothalamus/Pituitary gland; conditions: read-out: Drug uptake
[16] = Drug uptake in Sprague-Dawley rat hypothalamus and pituitary at 12 mg/kg, po measured after 12 hrs by LC-MS/MS analysis; type: ADME, organism-based, Hypothalamus/Pituitary gland; conditions: read-out: Drug uptake
[17] = Drug uptake in Sprague-Dawley rat heart at 12 mg/kg, po measured after 1 hr by LC-MS/MS analysis; type: ADME, organism-based; conditions: read-out: Drug uptake
[18] = Lipophilicity, log D of the compound at pH 7.4; type: physicochemical; conditions: buffer

Structure (SMILES) | Papp A→B at 3 h [1] | Papp B→A at 3 h [2] | CLint scaled at […] [3] | CLint scaled at […] [4] | other results
COCCN(C)Cc1c(-c2ccc(NC(=O)NOC)cc2)sc2c1c(=O)n(-c1ccc(OC)nn1)c(=O)n2Cc1c(F)cccc1F | 0.031 ×10⁻⁶ cm/s | 42.2 ×10⁻⁶ cm/s | < 6.75 mL/min/kg | 15.8 mL/min/kg | Tmax [5]: 0.31 h; Cmax [6]: 329 nM; AUC(0-t) at 24 h [7]: 0.904 µM·h; half-life [8]: 4.33 h; bioavailability [9]: 10.9%; Cmax [10]: 1230 nM; AUC(0-t) at 24 h [11]: 0.689 µM·h; clearance [12]: 38.7 mL/min/kg; half-life [13]: 2.6 h
CONC(=O)Nc1ccc(-c2sc3c(c2CN(C)C)c(=O)n(-c2ccc(OC(F)F)nn2)c(=O)n3Cc2c(F)cccc2F)cc1 | 0.019 ×10⁻⁶ cm/s | 15.1 ×10⁻⁶ cm/s | < 6.75 mL/min/kg | 16.6 mL/min/kg | 
CNc1ccc(-n2c(=O)c3c(CN(C)C)c(-c4ccc(NC(=O)NOC)cc4)sc3n(Cc3c(F)cccc3F)c2=O)nn1 | 0.05 ×10⁻⁶ cm/s | 0.5 ×10⁻⁶ cm/s | < 6.75 mL/min/kg | 34.9 mL/min/kg | 
COc1ccc(-n2c(=O)c3c(CN(C)C)c(-c4ccc(NC(=O)NOCC(F)F)cc4)sc3n(Cc3c(F)cccc3F)c2=O)nn1 | 0.01 ×10⁻⁶ cm/s | 15.7 ×10⁻⁶ cm/s | 7.38 mL/min/kg | 45.4 mL/min/kg | 
CONC(=O)Nc1ccc(-c2sc3c(c2CN(C)C)c(=O)n(-c2cccc(OC)c2F)c(=O)n3Cc2c(F)cccc2F)cc1 | 0.051 ×10⁻⁶ cm/s | 21.1 ×10⁻⁶ cm/s | 52 mL/min/kg | 211 mL/min/kg | 
CONC(=O)Nc1ccc(-c2sc3c(c2CN(C)CCOC(F)(F)F)c(=O)n(-c2ccc(OC)nn2)c(=O)n3Cc2c(F)cccc2F)cc1 | 0.984 ×10⁻⁶ cm/s |  | 14.2 mL/min/kg | 37.1 mL/min/kg | Tmax [5]: 1.13 h; Cmax [6]: 920 nM; AUC(0-t) at 24 h [7]: 7.37 µM·h; half-life [8]: 4.86 h; bioavailability [9]: 44.7%; Cmax [10]: 3920 nM; AUC(0-t) at 24 h [11]: 1.37 µM·h; clearance [12]: 17.5 mL/min/kg; half-life [13]: 2.79 h
CONC(=O)Nc1ccc(-c2sc3c(c2CN(C)C)c(=O)n(-c2ccc(OC)nn2)c(=O)n3Cc2c(F)cccc2C(F)(F)F)cc1 | 0.011 ×10⁻⁶ cm/s | 4.58 ×10⁻⁶ cm/s | < 6.75 mL/min/kg | < 13.5 mL/min/kg | 
COc1ccc(-n2c(=O)c3c(CN(C)C)c(-c4ccc(NC(=O)NOCC(F)(F)F)cc4)sc3n(Cc3c(F)cccc3F)c2=O)nn1 | 0.009 ×10⁻⁶ cm/s | 17.2 ×10⁻⁶ cm/s | < 6.75 mL/min/kg | 38.9 mL/min/kg | 
CCc1ccc(-n2c(=O)c3c(CN(C)C)c(-c4ccc(NC(=O)NOC)cc4)sc3n(Cc3c(F)cccc3F)c2=O)nn1 | 0.013 ×10⁻⁶ cm/s | 10.2 ×10⁻⁶ cm/s | 17.6 mL/min/kg | 31.3 mL/min/kg | 
C[C@H]1O[C@@H](O[C@H]2[C@@H](O)C[C@H](O[C@H]3[C@@H](O)C[C@H](O[C@H]4CC[C@@]5(C)[C@H](CC[C@@H]6[C@@H]5C[C@@H](O)[C@]5(C)[C@@H](C7=CC(=O)OC7)CC[C@]65O)C4)O[C@@H]3C)O[C@@H]2C)C[C@H](O)[C@@H]1O [DIGOXIN] | 0.013 ×10⁻⁶ cm/s | 12.8 ×10⁻⁶ cm/s |  |  | 
CONC(=O)Nc1ccc(-c2sc3c(c2CN(C)C)c(=O)n(-c2ccc(OC)nn2)c(=O)n3Cc2c(F)cccc2F)cc1 [RELUGOLIX] |  |  | 5.22 mL/min/kg | 29.5 mL/min/kg | Papp ([1]; caco-2, 3 h): 0.007 10^-6 cm/s; Papp ([2]; caco-2, 3 h): 13.84 10^-6 cm/s; Tmax [5]: 0.33 h; Cmax [6]: 35.3 nM; AUC(0-t) at 24 h [7]: 0.234 µM·h; half-life [8]: 3.88 h; bioavailability [9]: 5.7%; Cmax [10]: 544 nM; AUC(0-t) at 24 h [11]: 0.34 µM·h; clearance [12]: 78.3 mL/min/kg; half-life [13]: 3.64 h; concentration at 1 h [14]: 4.46 ng/g; concentration at 4 h [15]: 9.2 ng/g; concentration at 12 h [16]: 3.2 ng/g; concentration at 1 h [17]: 429 ng/g; logD [18]: 1.24
